Experimental data as given in PubChem BioAssay AID1963825 (Molecular Pharmacology Branch, DTP, NCI, 2024).

Assay: Anticancer human tumor 997537-175-T-J1-PDC patient-derived colon adenocarcinoma cell line growth inhibition [POLQ]
Conditions: 997537-175-T-J1-PDC complex spheroid viability, combination with POLQ inhibitors; for IC50: curve of first compound; for viability, T/C: stronger effect = lower value
Outline: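 Growth inhibition in 3D: complex spheroids (tumor PDC, HUVEC, MSC) treated with POLQ inhibitor combinations; where Cmax unknown, highest tested concentration 10 microM, except SN-38 at 1 microM.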

[1] = second compound 0.0316 µM, first compound 0.0316 µM
[2] = second compound 0.0316 µM, first compound 0.1 µM
[3] = second compound 0.0316 µM, first compound 0.316 µM
[4] = second compound 0.0316 µM, first compound 1 µM
[5] = second compound 0.0316 µM, first compound 3.16 µM
[6] = second compound 0.0316 µM, first compound 10 µM
[7] = second compound 0.1 µM, first compound 0.0316 µM
[8] = second compound 0.1 µM, first compound 0.1 µM
[9] = second compound 0.1 µM, first compound 0.316 µM
[10] = second compound 0.1 µM, first compound 1 µM
[11] = second compound 0.1 µM, first compound 3.16 µM
[12] = second compound 0.1 µM, first compound 10 µM
[13] = second compound 0.316 µM, first compound 0.0316 µM
[14] = second compound 0.316 µM, first compound 0.1 µM
[15] = second compound 0.316 µM, first compound 0.316 µM
[16] = second compound 0.316 µM, first compound 1 µM
[17] = second compound 0.316 µM, first compound 3.16 µM
[18] = second compound 0.316 µM, first compound 10 µM
[19] = second compound 1 µM, first compound 0.0316 µM
[20] = second compound 1 µM, first compound 0.1 µM
[21] = second compound 1 µM, first compound 0.316 µM
[22] = second compound 1 µM, first compound 1 µM
[23] = second compound 1 µM, first compound 3.16 µM
[24] = second compound 1 µM, first compound 10 µM
[25] = second compound 3.16 µM, first compound 0.0316 µM
[26] = second compound 3.16 µM, first compound 0.1 µM
[27] = second compound 3.16 µM, first compound 0.316 µM
[28] = second compound 3.16 µM, first compound 1 µM
[29] = second compound 3.16 µM, first compound 3.16 µM
[30] = second compound 3.16 µM, first compound 10 µM
[31] = second compound 10 µM, first compound 0.0316 µM
[32] = second compound 10 µM, first compound 0.1 µM
[33] = second compound 10 µM, first compound 0.316 µM
[34] = second compound 10 µM, first compound 1 µM
[35] = second compound 10 µM, first compound 3.16 µM
[36] = second compound 10 µM, first compound 10 µM
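Also: luminescence signal used as a surrogate for viable cells; spheroids exposed to drugs for seven days before readout.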

SMILES: C=CC(=O)N1CCN(c2nc(=O)n(-c3c(C)ccnc3C(C)C)c3nc(-c4c(O)cccc4F)c(F)cc23)C(C)C1 (stereo unspecified) + Nc1ccc(C#CCN(C(=O)Cc2ncc(C(F)(F)F)cc2C(F)(F)F)c2ccc(F)cc2)nn1
- IC50 (second compound 0.0316 µM): > 10 µM
- IC50 (second compound 0.1 µM): > 10 µM
- IC50 (second compound 0.316 µM): > 10 µM
- IC50 (second compound 1 µM): > 10 µM
- IC50 (second compound 3.16 µM): > 10 µM
- IC50 (second compound 10 µM): > 10 µM
- viability, T/C [1]: 106%
- viability, T/C [2]: 97.1%
- viability, T/C [3]: 95.4%
- viability, T/C [4]: 108%
- viability, T/C [5]: 93.8%
- viability, T/C [6]: 100%
- viability, T/C [7]: 103%
- viability, T/C [8]: 91.1%
- viability, T/C [9]: 102%
- viability, T/C [10]: 96.7%
- viability, T/C [11]: 111%
- viability, T/C [12]: 107%
- viability, T/C [13]: 96.6%
- viability, T/C [14]: 102%
- viability, T/C [15]: 103%
- viability, T/C [16]: 101%
- viability, T/C [17]: 90.9%
- viability, T/C [18]: 94%
- viability, T/C [19]: 102%
- viability, T/C [20]: 111%
- viability, T/C [21]: 109%
- viability, T/C [22]: 97.2%
- viability, T/C [23]: 96.9%
- viability, T/C [24]: 97.6%
- viability, T/C [25]: 96.3%
- viability, T/C [26]: 106%
- viability, T/C [27]: 103%
- viability, T/C [28]: 96.8%
- viability, T/C [29]: 106%
- viability, T/C [30]: 98.2%
- viability, T/C [31]: 101%
- viability, T/C [32]: 106%
- viability, T/C [33]: 104%
- viability, T/C [34]: 95.3%
- viability, T/C [35]: 97.6%
- viability, T/C [36]: 90.8%

SMILES: CC1COCCN1c1cc(C2(O)CC3CCC(C2)O3)c2cnn(-c3ccn[nH]3)c2n1 (stereo unspecified) + Nc1ccc(C#CCN(C(=O)Cc2ncc(C(F)(F)F)cc2C(F)(F)F)c2ccc(F)cc2)nn1
- IC50 (second compound 0.0316 µM): 1.7 µM
- IC50 (second compound 0.1 µM): > 10 µM
- IC50 (second compound 0.316 µM): > 10 µM
- IC50 (second compound 1 µM): 6.2 µM
- IC50 (second compound 3.16 µM): 3.16 µM
- IC50 (second compound 10 µM): > 10 µM
- viability, T/C [1]: 94.8%
- viability, T/C [2]: 83.7%
- viability, T/C [3]: 58.4%
- viability, T/C [4]: 56.8%
- viability, T/C [5]: 40.1%
- viability, T/C [6]: 53.3%
- viability, T/C [7]: 98.8%
- viability, T/C [8]: 73.5%
- viability, T/C [9]: 42.5%
- viability, T/C [10]: 72.8%
- viability, T/C [11]: 48%
- viability, T/C [12]: 64.5%
- viability, T/C [13]: 93.2%
- viability, T/C [14]: 80.8%
- viability, T/C [15]: 49.9%
- viability, T/C [16]: 46.3%
- viability, T/C [17]: 51.4%
- viability, T/C [18]: 75.1%
- viability, T/C [19]: 97.3%
- viability, T/C [20]: 69.4%
- viability, T/C [21]: 63.1%
- viability, T/C [22]: 47.6%
- viability, T/C [23]: 58.6%
- viability, T/C [24]: 44.7%
- viability, T/C [25]: 82.4%
- viability, T/C [26]: 79.1%
- viability, T/C [27]: 42%
- viability, T/C [28]: 56.4%
- viability, T/C [29]: 42.8%
- viability, T/C [30]: 74.7%
- viability, T/C [31]: 94%
- viability, T/C [32]: 79.9%
- viability, T/C [33]: 55.3%
- viability, T/C [34]: 52.2%
- viability, T/C [35]: 62%
- viability, T/C [36]: 65.2%

SMILES: COc1cccc2c1C(=O)c1c(O)c3c(c(O)c1C2=O)CC(O)(C(=O)CO)CC3OC1CC(N)C(O)C(C)O1 (stereo unspecified) + Cc1cccc(N(C)C(=O)C2C(O)CCN2c2nc(C)cc(C(F)(F)F)c2C#N)c1
- IC50 (second compound 0.0316 µM): 2.65 µM
- IC50 (second compound 0.1 µM): 2.39 µM
- IC50 (second compound 0.316 µM): 4.16 µM
- IC50 (second compound 1 µM): 1.54 µM
- IC50 (second compound 3.16 µM): 2 µM
- IC50 (second compound 10 µM): 1.78 µM
- viability, T/C [1]: 81.4%
- viability, T/C [2]: 98.2%
- viability, T/C [3]: 104%
- viability, T/C [4]: 85.8%
- viability, T/C [5]: 43.6%
- viability, T/C [6]: 10.9%
- viability, T/C [7]: 101%
- viability, T/C [8]: 102%
- viability, T/C [9]: 113%
- viability, T/C [10]: 76.6%
- viability, T/C [11]: 42.2%
- viability, T/C [12]: 9.45%
- viability, T/C [13]: 99.3%
- viability, T/C [14]: 108%
- viability, T/C [15]: 116%
- viability, T/C [16]: 95.4%
- viability, T/C [17]: 63.4%
- viability, T/C [18]: 9.08%
- viability, T/C [19]: 92.8%
- viability, T/C [20]: 111%
- viability, T/C [21]: 99.8%
- viability, T/C [22]: 63.7%
- viability, T/C [23]: 26.1%
- viability, T/C [24]: 9.7%
- viability, T/C [25]: 82.9%
- viability, T/C [26]: 115%
- viability, T/C [27]: 92.2%
- viability, T/C [28]: 97%
- viability, T/C [29]: 18.8%
- viability, T/C [30]: 10.2%
- viability, T/C [31]: 102%
- viability, T/C [32]: 104%
- viability, T/C [33]: 90.7%
- viability, T/C [34]: 56.2%
- viability, T/C [35]: 41.9%
- viability, T/C [36]: 9.99%
